Tests used:
CDK9/cyclin T1 = CDK9/cyclin T1 (Homo sapiens, UniProt P50750); assay: Kinase assay, radioactive phosphate incorporation, CDK9/cyclin T1; type: biochemical; conditions: 100 μM ATP, 30° C.; read-out: Kinase inhibition IC50 CDK9/cyclin T1
How it was run: (§1)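 Inhibition is measured as reduced transfer of radioactive phosphate to a polypeptide substrate by 2-4 μg of recombinant enzyme. Mixtures with Mg/ATP (100 μM ATP, 15 mM MgCl2, [γ-32P]-ATP) in pH 7.4 MOPS-based buffer incubate at 30° C, are stopped on ice, filtered and counted.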

CDK2/cyclin A = CDK2/cyclin A (Homo sapiens, UniProt P24941); assay: Kinase assay, radioactive phosphate incorporation, CDK2/cyclin A; type: biochemical; conditions: 100 μM ATP, 30° C.; read-out: Kinase inhibition IC50 CDK2/cyclin A
How it was run: as §1

Aurora-A = target: T1, Aurora-A (Homo sapiens, UniProt O14965); assay: Kinase assay, radioactive phosphate incorporation, Aurora-A; type: biochemical; conditions: 100 μM ATP, 30° C.; read-out: Kinase inhibition IC50 Aurora-A
T1 sequence (O14965 1-403): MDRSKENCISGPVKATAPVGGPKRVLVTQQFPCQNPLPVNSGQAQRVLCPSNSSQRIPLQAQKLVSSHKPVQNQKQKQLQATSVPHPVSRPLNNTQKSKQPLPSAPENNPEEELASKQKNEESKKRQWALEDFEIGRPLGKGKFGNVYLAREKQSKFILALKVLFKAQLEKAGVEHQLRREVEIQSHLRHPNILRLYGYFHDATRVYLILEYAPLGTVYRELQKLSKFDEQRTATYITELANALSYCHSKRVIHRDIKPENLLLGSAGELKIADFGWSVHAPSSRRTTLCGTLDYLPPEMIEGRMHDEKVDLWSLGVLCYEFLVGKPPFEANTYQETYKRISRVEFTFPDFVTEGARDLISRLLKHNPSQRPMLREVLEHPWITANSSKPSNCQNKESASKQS
Experimental: (§2) The compounds from the examples above were investigated for their ability to inhibit the enzymatic activity of various protein kinases. This was achieved by measurement of incorporation of radioactive phosphate from ATP into appropriate polypeptide substrates. Recombinant protein kinases and kinase complexes were produced or obtained commercially. Assays were performed using 96-well plates and appropriate assay buffers (typically 25 mM β-glycerophosphate, 20 mM MOPS, 5 MM EGTA, 1 mM DTT, 1 mM Na3VO3, pH 7.4), into which were added 2-4 μg of active enzyme with appropriate substrates. The reactions were initiated by addition of Mg/ATP mix (15 mM MgCl2+100 μM ATP with 30-50 kBq per well of [γ-^32P]-ATP) and mixtures incubated as required at 30° C. Reactions were stopped on ice, followed by filtration through p81 filterplates or GF/C filterplates (Whatman Polyfiltronics, Kent, UK). After washing 3 times with 75 mM aq orthophosphoric acid, plates were dried, scintillant added and incorporated radioactivity measured in a scintillation counter (TopCount, Packard Instruments, Pangbourne, Berks, UK). Compounds for kinase assay were made up as 10 mM stocks in DMSO and diluted into 10% DMSO in assay buffer.

CDK1/cyclin B = CDK1/cyclin B (Homo sapiens, UniProt P06493); assay: Kinase assay, radioactive phosphate incorporation, CDK1/cyclin B; type: biochemical; conditions: 100 μM ATP, 30° C.; read-out: Kinase inhibition IC50 CDK1/cyclin B
Chain of CDK1/cyclin B (P06493 whole entry, species assumed): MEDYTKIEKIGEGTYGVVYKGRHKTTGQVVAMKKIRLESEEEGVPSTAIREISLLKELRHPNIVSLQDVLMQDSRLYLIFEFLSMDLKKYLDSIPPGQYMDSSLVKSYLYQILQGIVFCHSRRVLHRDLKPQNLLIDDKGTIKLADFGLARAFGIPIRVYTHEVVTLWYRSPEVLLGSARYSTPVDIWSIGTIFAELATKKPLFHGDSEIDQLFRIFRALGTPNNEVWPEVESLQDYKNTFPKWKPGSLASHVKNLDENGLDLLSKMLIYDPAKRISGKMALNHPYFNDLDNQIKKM
Chain of CDK1/cyclin B (P14635 whole entry partner, species assumed): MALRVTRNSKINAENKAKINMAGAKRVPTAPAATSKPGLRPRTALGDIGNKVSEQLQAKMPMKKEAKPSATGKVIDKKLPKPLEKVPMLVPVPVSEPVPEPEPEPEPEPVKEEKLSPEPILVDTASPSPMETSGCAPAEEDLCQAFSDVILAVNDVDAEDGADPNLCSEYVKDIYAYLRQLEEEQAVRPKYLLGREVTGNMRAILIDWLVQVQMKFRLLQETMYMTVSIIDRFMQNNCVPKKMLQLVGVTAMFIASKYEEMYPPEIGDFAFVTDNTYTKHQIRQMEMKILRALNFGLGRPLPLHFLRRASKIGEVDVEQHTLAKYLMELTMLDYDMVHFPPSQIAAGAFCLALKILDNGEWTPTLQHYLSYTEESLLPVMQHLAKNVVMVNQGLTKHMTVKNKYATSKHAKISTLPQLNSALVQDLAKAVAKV
Experimental: as §2

CDK4/cyclin D1 = CDK4/cyclin D1 (Homo sapiens, UniProt P11802); assay: Kinase assay, radioactive phosphate incorporation, CDK4/cyclin D1; type: biochemical; conditions: 100 μM ATP, 30° C.; read-out: Kinase inhibition IC50 CDK4/cyclin D1
Chain of CDK4/cyclin D1 (P11802 whole entry, species assumed): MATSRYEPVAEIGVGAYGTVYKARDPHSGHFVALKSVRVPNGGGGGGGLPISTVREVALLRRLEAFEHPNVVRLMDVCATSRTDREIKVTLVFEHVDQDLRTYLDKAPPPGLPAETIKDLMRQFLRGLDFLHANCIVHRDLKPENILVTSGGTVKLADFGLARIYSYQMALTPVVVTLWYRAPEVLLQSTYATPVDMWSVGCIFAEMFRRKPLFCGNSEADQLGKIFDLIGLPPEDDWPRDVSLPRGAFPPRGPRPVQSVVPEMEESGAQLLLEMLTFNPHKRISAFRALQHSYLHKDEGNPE
Chain of CDK4/cyclin D1 (P24385 whole entry partner, species assumed): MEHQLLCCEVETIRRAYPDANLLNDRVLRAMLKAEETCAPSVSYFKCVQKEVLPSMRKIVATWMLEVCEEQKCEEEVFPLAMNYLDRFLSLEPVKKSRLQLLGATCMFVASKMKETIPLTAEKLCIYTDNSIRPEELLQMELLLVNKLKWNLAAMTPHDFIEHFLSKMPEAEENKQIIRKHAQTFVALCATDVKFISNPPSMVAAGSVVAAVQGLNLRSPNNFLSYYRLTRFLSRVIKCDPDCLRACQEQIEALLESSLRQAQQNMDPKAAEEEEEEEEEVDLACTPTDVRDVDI
How it was run: as §1

CDK7/cyclin H = CDK7/cyclin H (Homo sapiens, UniProt P50613); assay: Kinase assay, radioactive phosphate incorporation, CDK7/cyclin H; type: biochemical; conditions: 100 μM ATP, 30° C.; read-out: Kinase inhibition IC50 CDK7/cyclin H
Chain of CDK7/cyclin H (P50613 whole entry, species assumed): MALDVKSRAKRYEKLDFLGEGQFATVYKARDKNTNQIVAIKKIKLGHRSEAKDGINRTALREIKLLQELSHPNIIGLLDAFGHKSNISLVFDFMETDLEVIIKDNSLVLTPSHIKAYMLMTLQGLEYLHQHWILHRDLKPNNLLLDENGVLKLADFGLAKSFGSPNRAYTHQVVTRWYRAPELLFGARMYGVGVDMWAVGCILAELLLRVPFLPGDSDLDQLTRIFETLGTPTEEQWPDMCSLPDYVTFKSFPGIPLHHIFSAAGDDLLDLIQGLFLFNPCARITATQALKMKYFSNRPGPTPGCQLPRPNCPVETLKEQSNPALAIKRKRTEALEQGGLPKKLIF
Chain of CDK7/cyclin H (P51946 whole entry partner, species assumed): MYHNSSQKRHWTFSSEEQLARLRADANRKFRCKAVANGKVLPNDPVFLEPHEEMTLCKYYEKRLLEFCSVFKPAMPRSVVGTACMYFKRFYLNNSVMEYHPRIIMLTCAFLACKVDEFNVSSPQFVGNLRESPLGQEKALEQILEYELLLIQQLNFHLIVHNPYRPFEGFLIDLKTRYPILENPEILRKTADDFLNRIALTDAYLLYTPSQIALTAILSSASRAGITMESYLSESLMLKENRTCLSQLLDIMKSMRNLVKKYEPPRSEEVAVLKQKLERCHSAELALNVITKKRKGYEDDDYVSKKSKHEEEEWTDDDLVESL
How it was run: as §1

GSK3β = GSK3β (Homo sapiens, UniProt P49841); assay: Kinase assay, radioactive phosphate incorporation, GSK3β; type: biochemical; conditions: 100 μM ATP, 30° C.; read-out: Kinase inhibition IC50 GSK3β
Chain of GSK3β (P49841 whole entry, species assumed): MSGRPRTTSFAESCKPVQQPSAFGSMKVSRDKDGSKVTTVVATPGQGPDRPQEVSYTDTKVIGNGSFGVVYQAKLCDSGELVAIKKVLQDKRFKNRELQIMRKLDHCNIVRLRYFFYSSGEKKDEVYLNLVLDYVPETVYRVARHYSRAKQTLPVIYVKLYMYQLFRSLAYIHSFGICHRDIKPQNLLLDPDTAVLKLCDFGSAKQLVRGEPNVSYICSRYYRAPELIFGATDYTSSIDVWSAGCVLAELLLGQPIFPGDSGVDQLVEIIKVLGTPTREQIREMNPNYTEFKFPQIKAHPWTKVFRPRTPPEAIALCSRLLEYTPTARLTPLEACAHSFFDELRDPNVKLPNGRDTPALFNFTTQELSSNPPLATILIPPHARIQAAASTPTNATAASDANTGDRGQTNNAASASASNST
How it was run: as §1

HT29 = assay: 72-h MTT cytotoxicity assay, HT29; type: cell-based; conditions: Homo sapiens, HT-29, read-out: 72-h MTT IC50 HT29, HT29 cell line
How it was run: (§3)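 Cells were seeded according to doubling time, left overnight at 37° C, then exposed in triplicate to a 1/3 DMSO-derived dilution series for 72 h at 37° C. MTT (5 mg/mL stock) was added for 4 h in the dark, and the dye was solubilised in DMSO.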

A549 = assay: 72-h MTT cytotoxicity assay, A549; type: cell-based; conditions: Homo sapiens, read-out: 72-h MTT IC50 A549, A549 cell line
How it was run: as §3

Saos-2 = assay: 72-h MTT cytotoxicity assay, Saos-2; type: cell-based; conditions: Homo sapiens, read-out: 72-h MTT IC50 Saos-2, Saos-2 cell line
How it was run: as §3

CDK2/cyclin E = CDK2/cyclin E (Homo sapiens, UniProt P24941); assay: Kinase assay, radioactive phosphate incorporation, CDK2/cyclin E; type: biochemical; conditions: 100 μM ATP, 30° C.; read-out: Kinase inhibition IC50 CDK2/cyclin E
How it was run: as §1

[1] = tested on: transformed human cell lines (A549, HT29, Saos-2); assay: 72-h MTT cytotoxicity assay, average of cell lines; type: cell-based; conditions: read-out: 72-h MTT IC50 Average, average of A549, HT29, Saos-2
How it was run: as §3

Chain of CDK9/cyclin T1 (P50750 whole entry, species assumed): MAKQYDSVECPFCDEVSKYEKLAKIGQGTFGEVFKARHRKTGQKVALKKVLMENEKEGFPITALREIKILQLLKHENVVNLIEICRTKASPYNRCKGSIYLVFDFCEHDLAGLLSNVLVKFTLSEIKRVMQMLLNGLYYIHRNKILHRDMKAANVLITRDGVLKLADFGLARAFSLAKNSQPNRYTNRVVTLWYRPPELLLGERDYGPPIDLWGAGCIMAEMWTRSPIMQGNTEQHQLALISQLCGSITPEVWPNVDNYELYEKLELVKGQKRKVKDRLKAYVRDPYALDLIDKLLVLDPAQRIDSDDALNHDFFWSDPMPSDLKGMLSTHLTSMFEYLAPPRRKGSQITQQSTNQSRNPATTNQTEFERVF
Chain of CDK9/cyclin T1 (O60563 whole entry partner, species assumed): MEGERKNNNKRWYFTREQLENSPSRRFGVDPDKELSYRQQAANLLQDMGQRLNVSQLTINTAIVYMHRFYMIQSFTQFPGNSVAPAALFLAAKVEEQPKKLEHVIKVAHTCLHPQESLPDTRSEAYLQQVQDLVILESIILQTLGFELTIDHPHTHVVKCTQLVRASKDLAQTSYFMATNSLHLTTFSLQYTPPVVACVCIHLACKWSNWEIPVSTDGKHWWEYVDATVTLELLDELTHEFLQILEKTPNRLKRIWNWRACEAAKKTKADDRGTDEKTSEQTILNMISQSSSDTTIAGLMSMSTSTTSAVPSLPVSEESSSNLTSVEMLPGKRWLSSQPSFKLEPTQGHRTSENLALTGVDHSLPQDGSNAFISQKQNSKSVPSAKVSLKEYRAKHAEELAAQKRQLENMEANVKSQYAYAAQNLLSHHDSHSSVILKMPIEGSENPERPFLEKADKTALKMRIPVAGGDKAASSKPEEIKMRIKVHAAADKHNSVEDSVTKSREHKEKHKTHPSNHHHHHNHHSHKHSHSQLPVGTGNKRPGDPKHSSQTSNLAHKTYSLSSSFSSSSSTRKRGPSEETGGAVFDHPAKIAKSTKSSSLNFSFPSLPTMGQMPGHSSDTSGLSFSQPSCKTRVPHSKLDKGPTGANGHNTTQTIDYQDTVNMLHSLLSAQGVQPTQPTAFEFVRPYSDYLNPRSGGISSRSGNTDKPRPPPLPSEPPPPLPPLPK

Structure (SMILES)	IC50 (CDK9/cyclin T1) [nM]	IC50 (CDK2/cyclin A) [nM]	IC50 (Aurora-A) [nM]	IC50 (CDK1/cyclin B) [nM]	IC50 (CDK4/cyclin D1) [nM]	IC50 (CDK7/cyclin H) [nM]	IC50 (GSK3β) [nM]	IC50 (CDK2/cyclin E) [nM]	IC50 (HT29) [nM]	IC50 (A549) [nM]	IC50 (Saos-2) [nM]	IC50 [1] [nM]
N#Cc1cccc(-c2ccnc(Nc3ccc(O)cc3)n2)c1 [Compound 93, 3-[2-(4-Hydroxy-phenylamino)-pyrimidin-4-yl]-benzonitrile]	–	–	1000	3100	2500	–	–	–	–	–	–	–
N#Cc1cccc(-c2ccnc(Nc3cccc(O)c3)n2)c1 [Compound 92, 3-[2-(3-Hydroxy-phenylamino)-pyrimidin-4-yl]-benzonitrile]	110	–	940	2100	1400	–	80	–	–	–	–	–
CN(C)Cc1cccc(-c2ccnc(Nc3cccc(O)c3)n2)c1 [Compound 80, 3-[4-(3-Dimethylaminomethyl-phenyl)-pyrimidin-2-ylamino]-phenol]	10	590	1500	690	–	720	830	70	1600	860	4000	2200 ± 1600
O=[N+]([O-])c1cccc(Nc2nccc(-c3cccc(Cl)c3)n2)c1 [Compound 112, [4-(3-Chloro-phenyl)-pyrimidin-2-yl]-(3-nitro-phenyl)-amine]	70	–	2600	–	–	–	160	–	–	–	–	–
CN(C)Cc1cccc(-c2ccnc(Nc3ccc(O)cc3)n2)c1 [Compound 81, 4-[4-(3-Dimethylaminomethyl-phenyl)-pyrimidin-2-ylamino]-phenol]	20	500	1000	1300	–	1400	1300	110	1200	1500	5000	2600 ± 2100
O=[N+]([O-])c1cccc(Nc2nccc(-c3cccc(CN4CCCC4CNc4ccccc4)c3)n2)c1 (centres unmarked) [Compound 86, (3-Nitro-phenyl)-{4-[3-(2-phenylaminomethyl-pyrrolidin-1-ylmethyl)-phenyl]-pyrimidin-2-yl}-amine]	130	–	2400	–	–	670	160	810	8900	49300	55800	38000 ± 25400
COc1ccc(Nc2nccc(-c3cccc(CN(C)C)c3)n2)cn1 [Compound 83, [4-(3-Dimethylaminomethyl-phenyl)-pyrimidin-2-yl]-(6-methoxy-pyridin-3-yl)-amine]	20	650	7800	380	–	990	150	190	910	1400	1600	1300 ± 400
COc1ccc(Nc2nccc(-c3cccc(CO)c3)n2)cn1 [Compound 125, {3-[2-(6-Methoxy-pyridin-3-ylamino)-pyrimidin-4-yl]-phenyl}-methanol]	120	–	960	–	–	5900	40	–	–	–	–	–
CS(=O)(=O)c1cccc(Nc2nccc(-c3cccc(Cn4cncn4)c3)n2)c1 [Compound 104, (3-Methanesulfonyl-phenyl)-[4-(3-[1,2,4]triazol-1-ylmethyl-phenyl)-pyrimidin-2-yl]-amine]	60	–	1500	–	–	6400	280	–	–	–	–	–

Stronger by IC50 (Aurora-A), values ahead:

IC50 (CDK9/cyclin T1) [nM]	IC50 (CDK2/cyclin A) [nM]	IC50 (Aurora-A) [nM]	IC50 (CDK1/cyclin B) [nM]	IC50 (CDK4/cyclin D1) [nM]	IC50 (CDK7/cyclin H) [nM]	IC50 (GSK3β) [nM]	IC50 (CDK2/cyclin E) [nM]	Structure (SMILES)	IC50 (HT29) [nM]	IC50 (A549) [nM]	IC50 (Saos-2) [nM]	IC50 [1] [nM]
40	2000	720	–	–	3100	70	–	OCc1cccc(-c2ccnc(Nc3cccc(O)c3)n2)c1 [Compound 115, 3-[4-(3-Hydroxymethyl-phenyl)-pyrimidin-2-ylamino]-phenol]	–	–	–	–
140	2000	700	–	–	–	–	–	CCOc1ccc(-c2ccnc(Nc3cccc(O)c3)n2)cc1 [Compound 109, 3-[4-(4-Ethoxy-phenyl)-pyrimidin-2-ylamino]-phenol]	–	–	–	–
6	1400	640	1100	590	–	350	130	COc1cccc(-c2ccnc(Nc3ccc(O)cc3)n2)c1 [Compound 98, 4-[4-(3-Methoxy-phenyl)-pyrimidin-2-ylamino]-phenol]	–	–	–	–
20	80	400	500	1300	1500	–	120	COc1ccc(-c2ccnc(Nc3ccc(O)cc3)n2)cc1 [Compound 110, 4-[4-(4-Methoxy-phenyl)-pyrimidin-2-ylamino]-phenol]	–	–	–	–
60	–	390	–	2100	3900	170	–	COc1ccc(Nc2nccc(-c3cccc(N(C)S(C)(=O)=O)c3)n2)cn1 [Compound 132, N-{3-[2-(6-Methoxy-pyridin-3-ylamino)-pyrimidin-4-yl]-phenyl}-N-methyl-methanesulfonamide]	–	–	–	–
90	–	340	–	–	–	10	–	O=[N+]([O-])c1cccc(Nc2nccc(-c3ccc(CCn4cncn4)cc3)n2)c1 [Compound 126, (3-Nitro-phenyl)-{4-[4-(2-[1,2,4]triazol-1-yl-ethyl)-phenyl]-pyrimidin-2-yl}-amine]	–	–	–	–
–	150	40	150	280	1700	30	120	OCc1cccc(Nc2nccc(-c3cccc(O)c3)n2)c1 [Compound 72, 3-[2-(3-Hydroxymethyl-phenylamino)-pyrimidin-4-yl]-phenol]	–	–	–	–
2	480	30	–	1400	130	100	170	CCN(Cc1cccc(-c2ccnc(Nc3cccc([N+](=O)[O-])c3)n2)c1)C(C)C [Compound 46, (4-{3-[(Ethyl-isopropyl-amino)-methyl]-phenyl}-pyrimidin-2-yl)-(3-nitro-phenyl)-amine]	530	960	1100	900 ± 300
5	1400	20	570	200	–	80	100	COc1cccc(-c2ccnc(Nc3cccc(O)c3)n2)c1 [Compound 88, 3-[4-(3-Methoxy-phenyl)-pyrimidin-2-ylamino]-phenol]	–	–	–	–

From patent publication US20070021419A1, “2-Aminophenyl-4-phenylpyrimidines as kinase inhibitors” (Cyclacel Limited, priority 2003, published 2007)
